Assay results as given in patent publication US20170226133A1, “Gold (I)-Phosphine Compounds as Anti-Bacterial Agents” (Auspherix Limited, priority 2014, published 2017).

Experiments:
[1] = tested on: human hepatocyte cell line (HepG2); assay: HepG2 cell inhibition assay (CCK-8 cell viability); assay type: cell-based; conditions: 50% growth inhibition, 24 hours
Description: Cell counting kit-8 (Sigma, CCK-8) assays were performed to assess the effect of compounds on cell viability. The assay is based on the reduction of a water-soluble tetrazolium salt (WST-8) by cellular dehydrogenases to a formazan dye which can be detected spectroscopically. 96-well plates were seeded with the human hepatocyte cell line (HepG2) at approximately 8×10^3 cells per well in Minimum Essential Medium Eagle (EMEM) with Earle's salts and sodium bicarbonate supplemented with 10% heat-inactivated foetal bovine serum 2 mM glutamine and 1% non-essential amino acids (NEAA). The following day serial dilutions of compounds (dissolved and diluted in DMSO) were added to the cells in duplicates. Control included an ‘untreated’ control where cells were grown in the presence of 1% DMSO and a medium only control (plus 1% DMSO). After 24 hours CCK-8 reagent (10 μl) was added to each well and cell viability was assessed by measuring the absorbance at a wavelength of 450 nm after 2-3 h hours. Only living cells can reduce the tetrazolium salts into coloured formazan products. Results were expressed as 50% growth inhibition (TD50) values compared to ‘untreated’ control. The therapeutic index was calculated as the ratio of the dose that produces growth inhibition in 50% of HepG2 cells divided by the dose where 50% of S. aureus or E. coli growth is inhibited.

[2] = tested on: chinese hamster ovary cells (CHO); assay: CHO toxicity assay (CCK-8 cell viability); assay type: cell-based; conditions: 50% growth inhibition, 24 hours
Description: Cell counting kit-8 (Sigma, CCK-8) assays were performed to assess the effect of compounds on cell viability. The assay is based on the reduction of a water-soluble tetrazolium salt (WST-8) by cellular dehydrogenases to a formazan dye which can be detected spectroscopically. 96-well plates were seeded with chinese hamster ovary cells (CHO) cells at 7×10^3 cells per well in Dulbecco's modified Eagle's medium nutrient mixture F-12 Ham (containing 15 mM HEPES, NaHCO3, pyridoxine and L-glutamine) supplemented with 10% fetal bovine serum (FBS). The following day serial dilutions of compounds (dissolved and diluted in DMSO) were added to the cells in duplicates. Control included an ‘untreated’ control where cells were grown in the presence of 1% DMSO and a medium only control (plus 1% DMSO). After 24 hours CCK-8 reagent (10 μl) was added to each well and cell viability was assessed by measuring the absorbance at a wavelength of 450 nm after 2.5-3 hours. Only living cells can reduce the tetrazolium salts into coloured formazan products. Results were expressed as 50% growth inhibition (TD50) values compared to ‘untreated’ control.
The therapeutic index was calculated as the ratio of the dose that produces growth inhibition in 50% of CHO cells divided by the dose where 50% of S. aureus growth is inhibited.

[3] = tested on: S. aureus NCTC 8325 biofilm; assay: Preformed S. aureus biofilm assay (crystal violet); assay type: cell-based, Staphylococcus aureus; conditions: S. aureus NCTC 8325, 24 hours preformed biofilm, 24 hours exposure
Description: The effect of a test compound on the formation of a S. aureus biofilm may be assessed using a biofilm prevention assay as described by Merritt et al. Current Protocols in Microbiology, 2011, 1B.1.1-1B1.18 with slight modifications. Briefly, S. aureus NCTC 8325, MRSA (RPAH18) and MRSA (MW2) are grown overnight in Tryptic soy broth (TSB) and diluted to between 1/50 and 1/100 before 150 μL is added to the wells of a flat bottomed 96-well plate. Three microliters of auranofin at the appropriate dilution in DMSO are added to the wells in duplicate. Controls included a serial dilution of lincomycin in ethanol (to assess plate to plate variation), a positive control with bacteria alone in TSB with 2% DMSO and a negative (no bacteria) control with 150 μL TSB containing 2% DMSO. Plates are sealed with AeraSeal™ and incubated at 37° C. for 24 hours. The plates are then washed three times with PBS, dried at 60° C. for 1 hour and stained with crystal violet for 1 hour. The plates are again washed three times with water, dried and scanned prior to the addition of 33% acetic acid to re-solubilize the crystal violet stain bound to the adherent cells. Absorbance is then measured at 595 nm and expressed as a percentage of the bacteria only control.
The effect of a test compound on preformed S. aureus biofilms can also be assessed. Briefly S. aureus NCTC 8325 is plated in 96-well plates as described in above and incubated 37° C. for 24 hours. Biofilms are then washed 3 times with TSB and 150 μL of fresh TSB and 3 μL of auranofin at the appropriate dilution in DMSO was added to the wells in duplicate. Plates are again sealed with AeraSeal™ and reincubated 37° C. for 24 hours. Biofilm is then detected as described above.

[4] = tested on: S. aureus infection of G. mellonella larvae; assay: Galleria mellonella model, efficacy after S. aureus infection; assay type: in vivo; conditions: S. aureus infected larvae
Description: G. mellonella larvae at 5th or 6th instar stage were purchased from a commercial supplier and used within 3 days. Prior to infection larvae were kept at room temperature. Larvae were infected with bacteria (various Gram positive and negative bacteria, including S. aureus, K. pneumoniae, E. coli and P. aeruginosa) using a sterile Hamilton syringe. Bacteria cultures were grown overnight, washed ×3 in PBS and resuspended in PBS. Larvae were wiped with 70% ethanol and 10 μl of bacteria solution (to cause 80% death within 3-4 days) was injected into the bottom right proleg of the larvae. Larvae injected with 10 μl of PBS were used as negative controls. Larvae were then placed in petri dishes (1 dish per condition) containing filter paper at the bottom of the dish at 37° C. After various time points post infection (1-6 h), larvae were taken from the incubator wiped again with 70% ethanol and injected with 10 μl of various concentrations of compound, dissolved in either 5% dimethyl sulfoxide, 5% ethanol or 5% 1-methyl-2-pyrrolidinone into a proleg on the left hand-side. Control larvae received 10 μl of 5% solvent. Ten larvae were injected for each condition. To assess the toxicity of the compound, larvae were injected with various concentrations of compound alone. Larvae were returned to a 37° C. incubator and checked daily. […] Numbers of dead larvae were recorded each day. […]

G. mellonella larvae = assay: Galleria mellonella model, toxicity of compound alone; assay type: in vivo; conditions: uninfected larvae
Description: G. mellonella larvae at 5th or 6th instar stage were purchased from a commercial supplier and used within 3 days. Prior to infection larvae were kept at room temperature. Larvae were infected with bacteria (various Gram positive and negative bacteria, including S. aureus, K. pneumoniae, E. coli and P. aeruginosa) using a sterile Hamilton syringe. Bacteria cultures were grown overnight, washed ×3 in PBS and resuspended in PBS. Larvae were wiped with 70% ethanol and 10 μl of bacteria solution (to cause 80% death within 3-4 days) was injected into the bottom right proleg of the larvae. Larvae injected with 10 μl of PBS were used as negative controls. Larvae were then placed in petri dishes (1 dish per condition) containing filter paper at the bottom of the dish at 37° C. After various time points post infection (1-6 h), larvae were taken from the incubator wiped again with 70% ethanol and injected with 10 μl of various concentrations of compound, dissolved in either 5% dimethyl sulfoxide, 5% ethanol or 5% 1-methyl-2-pyrrolidinone into a proleg on the left hand-side. Control larvae received 10 μl of 5% solvent. Ten larvae were injected for each condition. To assess the toxicity of the compound, larvae were injected with various concentrations of compound alone. Larvae were returned to a 37° C. incubator and checked daily. Larvae were considered dead when no movement occurred when touched with a blunt pair of forceps. […] Numbers of dead larvae were recorded each day.
Survival Proportions Following Dosing with 10 μl of Compound 8 Solutions of Varying Strengths

C[P](C)(C)=[Au][S]c1nc2ccccc2[nH]1 [Compound 1]
HepG2 cell TD50 [1]: 4 µg/mL | CHO cell TD50 [2]: 3.2 µg/mL

COC(=O)[C@H](C[S][Au]=[P](C)(C)C)NC(C)=O [Compound 2]
effect on preformed S. aureus biofilm [3]: disrupted the biofilm | HepG2 cell TD50 [1]: 11 µg/mL | CHO cell TD50 [2]: 6.4 µg/mL

C[P](C)(C)=[Au][S]c1nc2ncccc2o1 [Compound 3]
effect on preformed S. aureus biofilm [3]: disrupted the biofilm | HepG2 cell TD50 [1]: 9 µg/mL | CHO cell TD50 [2]: 5.0 µg/mL

CC(=O)N[C@@H](C[S][Au]=[P](C)(C)C)C(N)=O [Compound 4]
effect on preformed S. aureus biofilm [3]: disrupted the biofilm | HepG2 cell TD50 [1]: 22 µg/mL

C[P](C)(C)=[Au][S]c1nc2cccnc2[nH]1 [Compound 7]
effect on preformed S. aureus biofilm [3]: disrupted the biofilm | HepG2 cell TD50 [1]: 12.5 µg/mL

CCOC(=O)[C@H](C[S][Au]=[P](C)(C)C)NC(C)=O [Compound 8]
mean survival rates ([4]; 2 mg/kg (p=0.02)): significantly increased | mean survival rates ([4]; 4 mg/kg (p=0.04)): significantly increased | effect on preformed S. aureus biofilm [3]: disrupted the biofilm | HepG2 cell TD50 [1]: 9.5 µg/mL | Survival proportions (G. mellonella larvae; 3.75 mg/kg, Day 1): 100 | Survival proportions (G. mellonella larvae; 3.75 mg/kg, Day 2): 100 | Survival proportions (G. mellonella larvae; 3.75 mg/kg, Day 3): 100 | Survival proportions (G. mellonella larvae; 3.75 mg/kg, Day 4): 100 | Survival proportions (G. mellonella larvae; 7.5 mg/kg, Day 1): 100 | Survival proportions (G. mellonella larvae; 7.5 mg/kg, Day 2): 100 | Survival proportions (G. mellonella larvae; 7.5 mg/kg, Day 3): 100 | Survival proportions (G. mellonella larvae; 7.5 mg/kg, Day 4): 100 | Survival proportions (G. mellonella larvae; 15 mg/kg, Day 1): 100 | Survival proportions (G. mellonella larvae; 15 mg/kg, Day 2): 100 | Survival proportions (G. mellonella larvae; 15 mg/kg, Day 3): 100 | Survival proportions (G. mellonella larvae; 15 mg/kg, Day 4): 100 | Survival proportions (G. mellonella larvae; 30 mg/kg, Day 1): 100 | Survival proportions (G. mellonella larvae; 30 mg/kg, Day 2): 90 | Survival proportions (G. mellonella larvae; 30 mg/kg, Day 3): 90 | Survival proportions (G. mellonella larvae; 30 mg/kg, Day 4): 90 | Survival proportions (G. mellonella larvae; 60 mg/kg, Day 1): 100 | Survival proportions (G. mellonella larvae; 60 mg/kg, Day 2): 80 | Survival proportions (G. mellonella larvae; 60 mg/kg, Day 3): 60 | Survival proportions (G. mellonella larvae; 60 mg/kg, Day 4): 50

C[P](C)(C)=[Au][S]c1ccccc1 [Compound 10]
effect on preformed S. aureus biofilm [3]: disrupted the biofilm | HepG2 cell TD50 [1]: 2 µg/mL

C[P](C)(C)=[Au][S]c1ccccn1 [Compound 11]
effect on preformed S. aureus biofilm [3]: disrupted the biofilm | HepG2 cell TD50 [1]: 4.5 µg/mL

C[P](C)(C)=[Au][S]c1ncccn1 [Compound 12]
effect on preformed S. aureus biofilm [3]: disrupted the biofilm | HepG2 cell TD50 [1]: 4.5 µg/mL

CN1CCC([S][Au]=[P](C)(C)C)CC1 [Compound 13]
HepG2 cell TD50 [1]: 15 µg/mL

C[P](C)(C)=[Au][S]c1nc2ncccc2s1 [Compound 14]
effect on preformed S. aureus biofilm [3]: disrupted the biofilm | HepG2 cell TD50 [1]: 7 µg/mL

C[P](C)(C)=[Au][S][C@H]1CC[C@H](O)CC1 [Compound 15]
effect on preformed S. aureus biofilm [3]: disrupted the biofilm | HepG2 cell TD50 [1]: 4.5 µg/mL

C[P](C)(C)=[Au][S]C1CCOCC1 [Compound 16]
HepG2 cell TD50 [1]: 4.5 µg/mL

CCOC(=O)[C@H](C[Se][Au]=[P](C)(C)C)NC(C)=O [Compound 18]
HepG2 cell TD50 [1]: >50 µg/mL

C[P](C)(C)=[Au][S]c1cccnc1 [Compound 19]
HepG2 cell TD50 [1]: 3 µg/mL
